Data: patent US8951972B2, “FGFR1 extracellular domain combination therapies for lung cancer” (Five Prime Therapeutics, Inc., priority 2010, dated 2015)

Legend:
[1] = tested on: A549 Non-Small Cell Lung Cancer (NSCLC) Xenograft; assay: A549 non-small cell lung cancer (NSCLC) xenograft model, tumor volume; type: in vivo, SCID mice
Method: Six weeks old female SCID mice were purchased from Charles River Laboratories (Wilmington, Mass.) and were acclimated for 1 week before the start of the study. […] The cells were implanted subcutaneously over the right flank of the mice at 5×10^6 cells/100 μl/mouse. One day after tumor implantation, mice were randomized according to body weight at 10 mice per group.
The tumor volume and body weight of the mice were monitored twice a week throughout each study.
The tumor volume of each group of mice at the end of each study was analyzed by one-way ANOVA followed by Tukey's test.
Cisplatin was purchased from Sigma-Aldrich (St. Louis, Mo.; Cat. No. P4394), formulated in 0.9% saline, and administered i.p. at 3.5 mg/kg ([…]) once per week for six weeks. Saline was used as negative control and was administered i.p. at 100 μl per mouse twice a week for six weeks.
On day 42, when the average tumor volume in the vehicle group reached 1300 mm^3, the mice were euthanized by isoflurane inhalation and cervical dislocation.
FGFR1-ECD.339-Fc was formulated in 0.9% Saline for Injection USP at 3 mg/ml. […] FGFR1-ECD.339-Fc was administered intraperitoneally (i.p.) at 15 mg/kg twice per week for 5 weeks. Paclitaxel was administered i.p. at 18 mg/kg on days 8, 12, and 15.
When the average tumor volume in vehicle control group reached ˜500 mm^3, the mice were euthanized by isoflurane inhalation and cervical dislocation.
FGFR1-ECD.339-Fc was formulated in 0.9% Saline for Injection USP at 3 mg/ml. 5-FU was purchased from Sigma-Aldrich (St. Louis, Mo.; Cat. No. F6627) and was initially dissolved in dimethyl sulfoxide (DMSO, Sigma-Aldrich, St. Louis, Mo.; Cat. No. D8418-50) at the concentration of 50 mg/ml as a stock solution. The stock solution was further diluted in 0.9% Sodium Chloride Injection USP to 6.6 mg/ml (for 33 mg/kg dosing). FGFR1-ECD.339-Fc was administered intraperitoneally (i.p.) at 15 mg/kg twice per week for four weeks. 5-FU was administered i.p. at 33 mg/kg twice a week for three weeks.
Mice were euthanized on day 31 by isoflurane inhalation and cervical dislocation.
FGFR1-ECD.339-Fc was formulated in PBS at 3 mg/ml and administered intraperitoneally (i.p.) at 15 mg/kg (300 μg/100 μl/mouse) twice a week for four weeks. Docetaxel was administered i.p. at 3 mg/kg or 10 mg/kg twice per week for four weeks.
Mice in the albumin control group were euthanized on day 32 by isoflurane inhalation and cervical dislocation when the average tumor volume in the group reached 1000 mm^3.

[2] = tested on: H520 Non-Small Cell Lung Cancer (NSCLC) Xenograft; assay: H520 non-small cell lung cancer (NSCLC) xenograft model, tumor volume; type: in vivo, SCID mice
Method: Dosing for all groups began one day post tumor implantation.
In combination groups, FGFR1-ECD.339-Fc and pemetrexed were administered on the same schedule as when given as single agents, and were administered concurrently on days 1, 4, 8, and 11.

[3] = Body weight of the mice in the xenograft studies; type: in vivo; details: for Body weight / tolerability: 250 mg/kg; for Body weight (weight loss): A549 study
[4] = tested on: Colo205 Colon Cancer Xenograft; assay: Colo205 colon cancer xenograft model, tumor volume; type: in vivo, SCID mice
Method: Cells were resuspended in a solution of 50%/v PBS and 50%/v Matrigel at a concentration of 25 million cells/ml. Resuspended cells were kept on ice until implantation. […] On day 0, 2.5 million cells/100 μl were implanted over the right flank of the each mouse using a 27G1/2 needle. One day after tumor implantation, the mice were randomized according to the body weight.
Leucovorin (LV) was also purchased from Sigma-Aldrich (Cat. No. F8259) and was formulated in 0.9% Sodium Chloride Injection USP at 2 mg/ml (for 10 mg/kg dosing), to 4 mg/ml (for 20 mg/kg dosing), and to 6 mg/ml (for 30 mg/kg dosing).
In the first experiment, FGFR1-ECD.339-Fc was combined with three different concentrations of 5-FU/leucovorin. In the second experiment, FGFR1-ECD.339-Fc was combined with either bevacizumab or 5-FU/leucovorin, or both. The double line separates the groups from the two experiments.
When the average tumor volume in a group was near 600 mm^3, the mice in that group were euthanized by isoflurane inhalation and cervical dislocation.
The order of effectiveness of the various treatments was evaluated two ways: 1) the average tumor volume in each group on a single time point (day); and 2) time for the average tumor volume in each group to reach 500 mm^3 (see the dotted line in FIG. 11E).
Leucovorin was also purchased from Sigma-Aldrich (Cat. No. F8259) and was formulated in 0.9% Sodium Chloride Injection USP at 2 mg/ml (for 10 mg/kg dosing).
5-FU and leucovorin were each administered i.p. at 10 mg/kg daily for five days. Oxaliplatin was administered i.p. at 5 mg/kg, 10 mg/kg, or 15 mg/kg in one dose on day 1.
Mice were euthanized on day 28 by isoflurane inhalation and cervical dislocation.

[5] = day 42, FGFR1-ECD.339-Fc 20 mg/kg i.p. 2x/wk x 6 wks, cisplatin 3.5 mg/kg i.p. 1x/wk x 6 wks
[6] = day 24, FGFR1-ECD.339-Fc 15 mg/kg i.p. 3x/wk x 4 wks, bevacizumab 1 mg/kg i.p. 2x/wk x 4 wks, 5-Fu/LV 10 mg/kg each i.p. q.d. x 5 days

## O=c1[nH]cc(F)c(=O)[nH]1 [5-FU, 5-fluoro-1H-pyrimidine-2,4-dione, reference compound]
[1]; day 31, FGFR1-ECD.339-Fc 15 mg/kg i.p. 2x/wk x 4 wks, 5-FU 33 mg/kg i.p. 2x/wk x 3 wks
  Fractional tumor volume (FTV), each treatment alone: 1.04

## N.N.[Cl][Pt][Cl] [Cisplatin, (SP-4-2)-diamminedichloridoplatinum, reference compound]
[1]; [5]
  Mean Tumor volume mm^3(±SD): 682 (±195) mm^3
  Tumor growth inhibition (%): 49%
[1]; day 42, FGFR1-ECD.339-Fc 20 mg/kg, cisplatin 3.5 mg/kg
  Fractional tumor volume (FTV) relative to control, each treatment alone: 0.5

## CC(=O)O[C@H]1C(=O)[C@@]2(C)[C@H]([C@H](OC(=O)c3ccccc3)[C@]3(O)C[C@H](OC(=O)[C@H](O)[C@@H](NC(=O)c4ccccc4)c4ccccc4)C(C)=C1C3(C)C)[C@]1(OC(C)=O)CO[C@@H]1C[C@@H]2O [Paclitaxel, (2α,4α,5β,7β,10β,13α)-4,10-bis(acetyloxy)-13-{[(2R,3S)-3-(benzoylamino)-2-hydroxy-3-phenylpropanoyl]oxy}-1,7-dihydroxy-9-oxo-5,20-epoxytax-11-en-2-yl benzoate, reference compound]
[1]; day 31, FGFR1-ECD.339-Fc 15 mg/kg i.p. 2x/wk x 5 wks, paclitaxel 18 mg/kg i.p. days 8, 12, 15
  Fractional tumor volume (FTV), each treatment alone: 0.57
[1]; day 38, FGFR1-ECD.339-Fc 15 mg/kg i.p. 2x/wk x 5 wks, paclitaxel 18 mg/kg i.p. days 8, 12, 15
  Fractional tumor volume (FTV), each treatment alone: 0.50

## Nc1nc2[nH]cc(CCc3ccc(C(=O)N[C@@H](CCC(=O)O)C(=O)O)cc3)c2c(=O)[nH]1 [Pemetrexed, (S)-2-[4-[2-(4-amino-2-oxo-3,5,7-triazabicyclo[4.3.0]nona-3,8,10-trien-9-yl)ethyl]benzoyl]aminopentanedioic acid, reference compound]
[2]; FIG. 4A, highest dose of pemetrexed (250 mg/kg), alone or with FGFR1-ECD.339-Fc 15 mg/kg
  Tumor inhibition over the course of the study (mean tumor volume): did not appear to inhibit tumor growth
[2]; FIGS. 2A, 3A, 4A, FGFR1-ECD.339-Fc 15 mg/kg, pemetrexed alone at the low or medium dose (62.5 or 125 mg/kg), combination dosed concurrently
  Tumor inhibition over the course of the study (mean tumor volume): resulted in tumor inhibition
[3]; H520 study, high dose of pemetrexed, 250 mg/kg i.p. QD x 5, FIG. 4B
  Body weight / tolerability: approaching the maximum tolerated dose
[3]; mouse, in vivo, ip
  Body weight / tolerability: initially lost significant body weight

## CC[C@]1(O)C[C@H]2CN(CCc3c([nH]c4ccccc34)[C@@](C(=O)OC)(c3cc4c(cc3OC)N(C=O)[C@H]3[C@@](O)(C(=O)OC)[C@H](OC(C)=O)[C@]5(CC)C=CCN6CC[C@]43[C@@H]65)C2)C1 [Vincristine, methyl (1R,9R,10S,11R,12R,19R)-11-(acetyloxy)-12-ethyl-4-[(13S,15S,17S)-17-ethyl-17-hydroxy-13-(methoxycarbonyl)-1,11-diazatetracyclo[13.3.1.0^4,12.0^5,10]nonadeca-4(12),5,7,9-tetraen-13-yl]-8-formyl-10-hydroxy-5-methoxy-8,16-diazapentacyclo[10.6.1.0^1,9.0^2,7.0^16,19]nonadeca-2,4,6,13-tetraene-10-carboxylate, reference compound]
[1]; day 39, FGFR1-ECD.339-Fc 15 mg/kg i.p. 2x/wk (start day 1), vincristine 1 mg/kg i.p. days 8, 15, 22
  Fractional tumor volume (FTV), each treatment alone: 0.53
[1]; day 46, FGFR1-ECD.339-Fc 15 mg/kg i.p. 2x/wk (start day 1), vincristine 1 mg/kg i.p. days 8, 15, 22
  Fractional tumor volume (FTV), each treatment alone: 0.55
[1]; day 70, FGFR1-ECD.339-Fc 20 mg/kg i.p. 2x/wk (start day 19), vincristine 1.5 mg/kg i.p. days 27, 34, 41
  Fractional tumor volume (FTV), each treatment alone: 0.41
[3]; higher dose of vincristine (1.5 mg/kg i.p. days 27, 34, 41), FIG. 9C
  Body weight (weight loss): lost weight
[3]; lower dose of vincristine (1 mg/kg i.p. days 8, 15, 22), data not shown
  Body weight (weight loss): did not lose weight

## Bevacizumab: recombinant humanized anti-VEGF monoclonal antibody [reference compound]
[4]; Day 24, FGFR1-ECD.339-Fc 15 mg/kg i.p. 3x/wk x 4 wks, bevacizumab 1 mg/kg i.p. 2x/wk x 4 wks, 5-Fu/LV 10 mg/kg each q.d. x 5 days
  Fractional tumor volume (FTV), each treatment alone: 0.58
[4]; by average tumor volume on a single day and by time for average tumor volume to reach 500 mm^3 (FIG. 11E), value gives the next-ranked group
  Order of antitumor effect of the treatment groups: >FGFR1-ECD.339-Fc
[4]; [6]
  Mean Tumor volume mm^3(±SD): 405 (±56) mm^3
  Tumor growth inhibition (%): 41%
